This experiment has as its target human P2X3 receptor (Homo sapiens (Human), UniProt P56373). In words: Evaluation of human P2X3 receptor inhibitory activity (ATP-induced Fluo-3 fluorescence, FDSS 3000). The class given is cell-based. The note with it: C6BU-1 cell transfected with human P2X3 receptor gene. The procedure: The plate was placed in High-Throughput Screening System FDSS 3000 (Hamamatsu Photonics K.K.). […] Five minutes after, 50 nM ATP solution (50 μL) prepared by dilution with the dilution buffer was dispensed through the built-in automatic dispenser, and the measurement of fluorescence intensity was continued for 3 min. For each well, the specific maximum fluorescence intensity was calculated as the ratio of the maximum fluorescence intensity after addition of the ATP solution to the fluorescence intensity at the starting of the measurement. […] FDSS software (Hamamatsu Photonics K.K.) was used for calculation of the specific maximum fluorescence intensity. IC50 was calculated using Microsoft Excel (Microsoft. Corporation) and XLfit (idbs Ltd.)
The aforementioned in mM, μM and nM are each means mmol/L, μmol/L and nmol/L, respectively.
In tables, μM means μmol/L.

Chain of human P2X3 receptor (P56373 whole entry): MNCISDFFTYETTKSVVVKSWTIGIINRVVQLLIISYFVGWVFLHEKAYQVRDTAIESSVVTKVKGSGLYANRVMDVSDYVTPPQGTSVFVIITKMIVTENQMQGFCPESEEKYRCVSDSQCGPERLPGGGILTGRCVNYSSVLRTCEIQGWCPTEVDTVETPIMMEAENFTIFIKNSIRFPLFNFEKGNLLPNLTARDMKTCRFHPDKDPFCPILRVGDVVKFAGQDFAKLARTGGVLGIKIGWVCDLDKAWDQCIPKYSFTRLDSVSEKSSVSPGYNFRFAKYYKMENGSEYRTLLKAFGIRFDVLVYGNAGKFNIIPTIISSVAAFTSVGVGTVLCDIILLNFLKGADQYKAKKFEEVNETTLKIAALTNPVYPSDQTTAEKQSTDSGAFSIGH

Compound `CC(C)Oc1ccc(Nc2[nH]c(=O)n(C)c(=O)c2Cc2ccc(Cl)cc2)cc1F` [I-001] returned an IC50 of 901 nM. Compound `CC(C)Oc1ccc(Nc2cc(=O)n(Cc3ccc(Cl)cc3)c(=O)n2Cc2ccc(Cl)cc2)cc1Cl` [I-005] gave an IC50 of 238 nM. Take `COC(=O)C(C)(C)Cn1c(=O)cc(Nc2ccc(OC(C)C)c(Cl)c2)n(Cc2ccc(Cl)cc2)c1=O` [I-010]: the IC50 worked out at 10 nM.

Consider `CC(C)Oc1ccc(Nc2cc(=O)n(CC(C)(C)C(=O)O)c(=O)n2Cc2ccc(Cl)cc2)cc1Cl` [I-012], for which it took 6 nM to reach half-maximal inhibition (IC50).

With `Cc1ccc(Cc2c(Nc3ccc(OC(C)C)cc3)[nH]c(=O)n(Cc3ccccc3)c2=O)cc1` [I-014], the IC50 worked out at 404 nM. As to `COC(=O)C(C)(C)Cn1c(=O)cc(Nc2ccc(OC(C)C)c(F)c2)n(Cc2ccc(Cl)cc2)c1=O` [I-020], it took 28 nM to reach half-maximal inhibition (IC50). In the case of `CC(C)Oc1ccc(Nc2ncc(Cc3ccccc3)c(=O)n2Cc2ccc(Cl)cc2)cc1Cl` [I-022], the IC50 is 147 nM.

Take `CC(C)Oc1ccc(Nc2nc(=O)c(Cc3ccccc3)cn2Cc2ccc(Cl)cc2)cc1Cl` [I-023, 5-benzyl-1-(4-chlorobenzyl)-2-(3-chloro-4-isopropoxyphenylamino)pyrimidine-4(1H)-one]: the IC50 was determined as 148 nM.

`CCOC(=O)c1cn(Cc2ccccc2)c(=O)cc1Nc1ccc(OC(C)C)c(Cl)c1` [I-046, 4-(3-chloro-4-isopropoxyphenylamino)-1-benzyl-5-(ethoxycarbonyl)pyridine-2(1H)-one] displayed an IC50 of 395 nM. Turning to `CCOC(=O)c1cn(Cc2ccccc2)c(Nc2ccc(OC(C)C)c(Cl)c2)cc1=O` [I-049], half-maximal inhibition (IC50) required 796 nM. Turning to `CCOC(=O)c1cn(Cc2ccccc2)c(=O)cc1Nc1ccc(OC(C)C)c(Nc2ccc(OC(C)C)c(Cl)c2)c1` [I-061], the IC50 is 748 nM.

`CC(C)Oc1ccc(Nc2ccc(Cc3nc(N(C)C)oc(=O)c3Cl)cc2)cc1F` [I-063] had an IC50 of 688 nM. `CC(C)Oc1ccc(Nc2cc(=O)n(Cc3ccccc3)cc2C(=O)c2ccc(Cl)cc2)cc1Cl` [I-065, 4-(3-chloro-4-isopropoxyphenylamino)-1-benzyl-5-(4-chlorobenzoyl)pyridine-2(1H)-one] displayed an IC50 of 128 nM.

For the compound `CC(C)Oc1ccc(Nc2cc(=O)n(Cc3ccccc3)cc2Cc2ccc(Cl)cc2)cc1Cl` [I-067, 4-(3-chloro-4-isopropoxyphenylamino)-1-benzyl-5-(4-chlorobenzyl)pyridine-2(1H)-one], half-maximal inhibition (IC50) required 310 nM. Regarding `CC(C)Oc1ccc(Nc2cc(=O)n(Cc3ccccc3)cc2C(O)c2ccc(Cl)cc2)cc1Cl` (stereo not drawn) [I-068, 4-(3-chloro-4-isopropoxyphenylamino)-1-benzyl-5-(4-chloro-α-hydroxybenzyl)pyridine-2(1H)-one], it took 105 nM to reach half-maximal inhibition (IC50).

In turn, `CC(C)Oc1ccc(Nc2oc(Cc3ccccc3)nc2Cc2ccc(Cl)cc2)cc1F` [I-070, 4-(4-chlorobenzyl)-2-benzyl-5-(3-fluoro-4-isopropoxyphenylamino)oxazole] had an IC50 of 635 nM. Compound `CCNc1ccc(Nc2ccc(OC(C)C)cc2)c(Cc2ccc(Cl)cc2)c1` [I-071, 1-(4-chlorobenzyl)-3-ethylamino-6-(4-isopropoxyphenylamino)benzene] gave an IC50 of 502 nM. For `CCc1cnc(Nc2ccc(OC(C)C)c(F)c2)c(Oc2ccc(C)cc2)n1` [I-072, 5-ethyl-2-(3-fluoro-4-isopropoxyphenylamino)-3-(4-methylphenoxy)pyrazine], the IC50 was 749 nM. For `CC(C)Oc1ccc(Nc2cc(=O)n(CC3COC(C)(C)OC3)c(=O)n2Cc2ccc(Cl)cc2)cc1Cl` [I-094], it took 5 nM to reach half-maximal inhibition (IC50). `COC(=O)[C@@H](C)Cn1c(=O)cc(Nc2ccc(OC(C)C)c(Cl)c2)n(Cc2ccc(Cl)cc2)c1=O` [I-095]: the IC50 came to 16 nM.

Compound `CC(C)Oc1ccc(Nc2nc(=O)c(/C=C/C(=O)O)cn2Cc2ccc(Cl)cc2)cc1Cl` [I-097] displayed an IC50 of 307 nM. In turn, `CCOC(=O)/C=C/c1cn(Cc2ccc(Cl)cc2)c(Nc2ccc(OC(C)C)c(Cl)c2)nc1=O` [I-098] had an IC50 of 233 nM. The result for `CC(C)Oc1ccc(Nc2cc(=O)n(CC(CO)CO)c(=O)n2Cc2ccc(Cl)cc2)cc1Cl` [I-099] reads 6 nM; that for `COC(=O)CCCn1c(=O)cc(Nc2ccc(OC(C)C)c(Cl)c2)n(Cc2ccc(Cl)cc2)c1=O` [I-103], 14 nM; that for `COC(=O)Cn1c(=O)cc(Nc2ccc(OC(C)C)c(F)c2)n(Cc2ccc(Cl)cc2)c1=O` [I-104, 1-(4-chlorobenzyl)-6-(3-fluoro-4-isopropoxyphenylamino)-3-(methoxycarbonylmethyl)pyrimidine-2,4(1H,3H)-dion], 96 nM. `CC(C)Oc1ccc(Nc2cc(=O)n(CC(=O)O)c(=O)n2Cc2ccc(Cl)cc2)cc1F` [I-105, 1-(4-chlorobenzyl)-6-(3-fluoro-4-isopropoxyphenylamino)-3-(hydroxycarbonylmethyl)pyrimidine-2,4(1H,3H)-dion] came in with an IC50 of 412 nM. In turn, `COC(=O)C(C)(C)Cn1c(=O)cc(Nc2cccc(C(F)(F)F)c2)n(Cc2ccc(Cl)cc2)c1=O` [I-107] had an IC50 of 51 nM.

For the compound `COC(=O)C(C)(C)Cn1c(=O)cc(Nc2cccc(C(F)(F)F)n2)n(Cc2ccc(Cl)cc2)c1=O` [I-108, 1-(4-chlorobenzyl)-3-(2-methoxycarbonyl-2-methylpropyl)-6-(6-trifluoromethyl-2-pyridylamino)pyrimidine-2,4(1H,3H)-dion], the IC50 was 61 nM. Consider `CC(C)Oc1ccc(Nc2nc(OCCO)c3ccccc3c2C(=O)c2ccc(Cl)cc2)cc1F` [I-110, 4-(4-chlorobenzoyl)-3-(3-fluoro-4-isopropoxyphenylamino)-1-(2-hydroxyethoxy)isoquinoline], for which the IC50 turned out to be 405 nM.

The compound `CC(C)Oc1ccc(NC2=CC(O)N(CC(=O)NC(CO)CO)C(=O)N2Cc2ccc(Cl)cc2)cc1F` (stereo not shown) [I-111] came in with an IC50 of 11 nM.

Regarding `CC(C)(CN1C(=O)N(Cc2ccc(Cl)cc2)C(Nc2cccc(C(F)(F)F)c2)=CC1O)C(=O)O` (stereo not shown) [I-113], the IC50 came out at 72 nM. For the compound `CC(C)(Cn1c(=O)cc(Nc2cccc(C(F)(F)F)n2)n(Cc2ccc(Cl)cc2)c1=O)C(=O)O` [I-114, 1-(4-chlorobenzyl)-3-(2-hydroxycarbonyl-2-methylpropyl)-6-(6-trifluoromethyl-2-pyridylamino)pyrimidine-2,4(1H,3H)-dion], the IC50 stood at 160 nM. For `CCOC(=O)CCC1=CN(Cc2ccc(Cl)cc2)C(Nc2ccc(OC(C)C)c(Cl)c2)=NC1O` (stereo not shown) [I-115], the IC50 was determined as 51 nM. Next, `CCOC(=O)CCC1CN(Cc2ccc(Cl)cc2)C(Nc2ccc(OC(C)C)c(Cl)c2)=NC1=O` (stereo not shown) [I-116]: 315 nM; `CCOC(=O)c1cn(Cc2ccc(Cl)cc2)c(Nc2ccc(OC(C)C)c(Cl)c2)nc1=O` [I-125]: 243 nM.

With `CCOC(=O)c1cnc(Nc2ccc(OC(C)C)c(Cl)c2)n(Cc2ccc(Cl)cc2)c1=O` [I-126], the IC50 is 50 nM. `CC(C)Oc1ccc(Nc2ncc(C(=O)O)c(=O)n2Cc2ccc(Cl)cc2)cc1Cl` [I-129]: the IC50 amounted to 490 nM. For the compound `CCOC(=O)/C=C/c1cnc(Nc2ccc(OC(C)C)c(Cl)c2)n(Cc2ccc(Cl)cc2)c1=O` [I-132, 2-(3-chloro-4-isopropoxyphenylamino)-3-(4-chlorobenzyl)-5-(2-ethoxycarbonylethenyl) pyrimidine-4(3H)-one], the midpoint of inhibition, the IC50, lay at 206 nM.

`CC(C)Oc1ccc(Nc2ncc(N3CCOCC3)c(=O)n2Cc2ccc(Cl)cc2)cc1F` [I-138, 2-(3-fluoro-4-isopropoxyphenylamino)-3-(4-chlorobenzyl)-5-(morpholino)pyrimidine-4(3H)-one] displayed an IC50 of 201 nM.

In turn, `CC(C)Oc1ccc(Nc2ncc(/C=C/C(=O)O)c(=O)n2Cc2ccc(Cl)cc2)cc1Cl` [I-139, 2-(3-chloro-4-isopropoxyphenylamino)-3-(4-chlorobenzyl)-5-(2-hydroxycarbonylethenyl) pyrimidine-4(3H)-one] showed an IC50 of 331 nM. Take `CC(C)Oc1ccc(Nc2nc(=O)c(C(=O)NCCO)cn2Cc2ccc(Cl)cc2)cc1F` [I-146, 1-(4-chlorobenzyl)-2-(3-fluoro-4-isopropoxyphenylamino)-5-[N-(2-hydroxyethyl)carbamoyl]pyrimidine-4(1H)-one]: inhibition was half-maximal at 383 nM (IC50). `CCOC(=O)c1cn(Cc2ccc(Cl)cc2)c2cc(Nc3ccccc3)ccc2c1=O` [I-148, 1-(4-chlorobenzyl)-7-(phenylamino)-3-(ethoxycarbonyl)quinoline-4(1H)-one] registered an IC50 of 324 nM. `CC(C)Oc1ccc(Nc2nc(=O)c(C(=O)NC(CO)CO)cn2Cc2ccc(Cl)cc2)cc1F` [I-150] yielded an IC50 of 120 nM.

`CC(C)Oc1ccc(Nc2ncc(C(=O)NCCO)c(=O)n2Cc2ccc(Cl)cc2)cc1F` [I-152]: the IC50 came out at 96 nM. As for `CC(C)Oc1ccc(Nc2ncc(C(=O)NC(CO)CO)c(=O)n2Cc2ccc(Cl)cc2)cc1F` [I-153], the IC50 was 59 nM. Take `CC(C)Oc1ccc(Nc2ncc(C(=O)N(C)CCO)c(=O)n2Cc2ccc(Cl)cc2)cc1F` [I-156]: the IC50 amounted to 509 nM. Compound `CCOC(=O)/C=C/c1cnc(Nc2ccc(OC(C)C)c(F)c2)n(Cc2ccc(Cl)cc2)c1=O` [I-157] displayed an IC50 of 589 nM. Consider `CC(C)Oc1ccc(Nc2ncc(NC(=O)OC(C)(C)C)c(=O)n2Cc2ccc(Cl)cc2)cc1F` [I-158], for which the IC50 came out at 20 nM. Regarding `COC(=O)[C@H](C)NC(=O)c1cnc(Nc2ccc(OC(C)C)c(F)c2)n(Cc2ccc(Cl)cc2)c1=O` [I-164], the IC50 came out at 18 nM. The result for `CNc1ncc(Nc2cccc(C(F)(F)F)c2)c(Cc2ccc(Cl)cc2)n1` [I-190] reads 990 nM. In turn, `COC(=O)[C@@H](C)NC(=O)c1cnc(Nc2ccc(OC(C)C)c(F)c2)n(Cc2ccc(Cl)cc2)c1=O` [I-197] gave an IC50 of 98 nM.

With `CC(C)Oc1ccc(Nc2ncc(C(=O)N[C@@H](C)C(=O)O)c(=O)n2Cc2ccc(Cl)cc2)cc1F` [I-201], the IC50 came to 229 nM.

What is called IC50 is the concentration needed to halve the response being measured. A high value points to a need for much substance.

These data come from patent US9212130B2, “Heterocyclic derivative and pharmaceutical composition comprising the same” (SHIONOGI & CO., LTD., priority 2010, dated 2015).
